The values below come from US9040725B2, “Benzocycloheptane and benzoxepine derivatives” (Janssen Pharmaceutica NV, priority 2008, dated 2015).

Each structure is given as a SMILES string. Where two headings read alike, the source gives them in different places.

One test has as its system NMRI-mice. Briefly: Acceleration of gastric emptying and small intestinal propulsion in NMRI-mice. In kind it is in vivo. Conditions: Mus musculus, sc, lowest active dose, subcutaneous, 30 min before phenol red test meal. An outline of the steps: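 Male NMRI mice (~25 g, fasted 20 h) received compound sc 30 min before a 0.3 ml gavaged chocolate nutridrink meal with phenol red (5 mg/ml). LAD is the lowest active dose per parameter.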

The subject of a further test is GHS1A-r+/+ (WT) mice. As to the kind of experiment: Acceleration of gastric emptying in wild type (GHS1A-r+/+, WT) mice. Conditions: 10 mg/kg subcutaneous 30 minutes before test meal, 15 minutes after meal. It is filed as in vivo. The protocol:
(§1) FIG. 1 describes the gastric content (measured as extinction units of phenol red) remaining 15 minutes after administration of a phenol red containing test meal by oral gavage in GHS1A-r^+/+ (WT) and GHS1A-r^−/− (KO) mice pretreated with saline (Vehicle) or compound 3 (10 mg/kg SC) 30 minutes before the meal (individual data and mean, n=3).
(§2) Male NMRI-mice weighing around 25 gram were fasted for 20 h and had free access to drinking water. Test compounds were administered to the animals by subcutaneous route 30 min before they were given a test meal by oral gavage. The test meal consisted of 0.3 ml of a chocolate nutridrink solution (1.0 kcal/ml) containing phenol red marker (5 mg/ml). Fifteen min after administration of the meal, the mice were sacrificed by CO2 gas inhalation. The phenol red content remaining in the stomach (extracted from the stomach with NaOH) was determined at 557 nm in a spectrophotometer and expressed as extinction units. Small intestinal propulsion was determined as the distance traveled by the phenol red marker through the intestine and expressed as a percentage of total small intestinal length (from the pylorus to the ileo-cecal junction). […]

In a further test the test system is GHS1A-r-/- (KO) mice. Briefly: Acceleration of gastric emptying in GHS1A-r-/- (KO) mice. The conditions noted are these: 10 mg/kg subcutaneous 30 minutes before test meal, 15 minutes after meal. In kind it is in vivo. The protocol:
as §1, §2

A further test deals with T1, GHS1A-receptor (Homo sapiens, UniProt Q92847).
T1 construct: expressed in transfected cells; host or cells: HEK293
Briefly: Ghrelin-agonism in HEK293 cells (intracellular calcium, FLIPR). In kind it is cell-based. The conditions noted are these: HEK293 cells permanently transfected with GHS1A-receptor, calcium fluorescence (fluo-4 or Kit-3), EC50 in M, read-out: pEC50 (converted). An outline of the steps: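 HEK293 cells stably expressing GHS1A receptor loaded with fluo-4 or Kit-3 for 1 h at 37° C. Compound-triggered calcium fluorescence (ex 488, em >520 nm) recorded on FLIPR; response expressed relative to maximal ionomycin signal.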
Background: Calcium flux is commonly read through the fluorescence of an indicator in the cells.

T1 sequence (Q92847 whole entry): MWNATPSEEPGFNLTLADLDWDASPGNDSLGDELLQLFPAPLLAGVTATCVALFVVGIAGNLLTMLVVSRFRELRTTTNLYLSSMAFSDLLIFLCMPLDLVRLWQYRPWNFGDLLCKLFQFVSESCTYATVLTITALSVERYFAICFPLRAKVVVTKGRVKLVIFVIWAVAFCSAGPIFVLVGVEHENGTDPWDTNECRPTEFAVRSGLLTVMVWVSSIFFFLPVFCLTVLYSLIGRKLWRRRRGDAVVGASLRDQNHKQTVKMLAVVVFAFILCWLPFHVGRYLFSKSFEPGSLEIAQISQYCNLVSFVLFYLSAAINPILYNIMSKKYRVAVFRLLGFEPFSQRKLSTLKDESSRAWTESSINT

For `CN(C)CCCC1(O)c2ccccc2CCCC1c1ccc(Cl)cc1` (single isomer, unassigned) [Compound 3], the minimal effective dose in the test with NMRI-mice (active when >60% of animals had phenol red front beyond 85% of small intestinal length, read-out: LAD (mg/kg) Small intestinal propulsion) came to 0.63 mg/kg; in the test with NMRI-mice (stomach content 15 min after meal, active when >60% of animals below 0.9 extinction units, read-out: LAD (mg/kg) Gastric emptying), 0.63 mg/kg. Besides, the entries for the “meal content remaining in the stomach versus vehicle” value in the test on GHS1A-r+/+ (WT) mice and in the test with GHS1A-r-/- (KO) mice were “emptied more than vehicle treated WT mice” and “no difference in remaining gastric content”, respectively. Also, the EC50 on GHS1A-receptor was 20 nM.
